Experiments:
Calcitonin receptor = biological target: T1, Calcitonin receptor (Homo sapiens, UniProt P30988); assay type: cell membranes, Membrane; conditions: t47d; further: in other assays of this panel Not Active means under 50% inhibition at 10 µM
T1 sequence (P30988 whole entry): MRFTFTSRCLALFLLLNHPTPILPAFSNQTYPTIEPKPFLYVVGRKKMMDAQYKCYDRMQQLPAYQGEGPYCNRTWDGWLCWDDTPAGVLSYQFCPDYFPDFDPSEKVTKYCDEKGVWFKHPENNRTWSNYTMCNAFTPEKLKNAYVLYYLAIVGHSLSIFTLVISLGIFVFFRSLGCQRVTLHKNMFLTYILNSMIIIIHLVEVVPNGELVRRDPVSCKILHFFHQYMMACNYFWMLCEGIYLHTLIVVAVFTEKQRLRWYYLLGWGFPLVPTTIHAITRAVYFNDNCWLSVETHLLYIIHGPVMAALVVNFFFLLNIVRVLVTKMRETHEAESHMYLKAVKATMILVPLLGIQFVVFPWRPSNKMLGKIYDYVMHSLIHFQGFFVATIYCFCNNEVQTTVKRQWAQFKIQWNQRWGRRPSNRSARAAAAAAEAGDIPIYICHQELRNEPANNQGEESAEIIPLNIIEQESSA

D(4) dopamine receptor = biological target: T2, D(4) dopamine receptor (Homo sapiens, UniProt P21917); assay: DRUGMATRIX: Dopamine D4.2 radioligand binding (ligand: [3H] Spiperone); assay type: cell membranes, CHO-K1, Membrane; conditions: cho-k1; Not Active = under 50% inhibition at 10 µM
T2 sequence (P21917 whole entry): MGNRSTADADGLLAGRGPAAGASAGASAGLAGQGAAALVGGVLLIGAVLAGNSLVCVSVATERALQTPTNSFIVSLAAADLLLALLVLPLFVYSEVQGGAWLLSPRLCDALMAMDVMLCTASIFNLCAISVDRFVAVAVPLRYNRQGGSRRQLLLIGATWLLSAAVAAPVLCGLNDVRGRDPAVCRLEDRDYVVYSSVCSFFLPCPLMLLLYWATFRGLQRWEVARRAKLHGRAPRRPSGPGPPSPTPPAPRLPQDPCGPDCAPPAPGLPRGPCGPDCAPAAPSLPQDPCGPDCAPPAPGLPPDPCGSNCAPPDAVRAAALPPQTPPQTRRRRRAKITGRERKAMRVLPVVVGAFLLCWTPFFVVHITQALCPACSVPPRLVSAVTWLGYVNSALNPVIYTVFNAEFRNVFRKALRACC

[1] = DRUGMATRIX: Phosphodiesterase PDE3 enzyme inhibition (substrate: [3H]cAMP + cAMP); assay type: tissue-based, Homo sapiens; conditions: platelet; Not Active = under 50% inhibition at 10 µM
[2] = biological target: Platelet-activating factor receptor (Homo sapiens, UniProt P25105); assay type: tissue-based; further: in other assays of this panel Not Active means under 50% inhibition at 10 µM
Platelet-activating factor receptor, sequence (P25105 whole entry): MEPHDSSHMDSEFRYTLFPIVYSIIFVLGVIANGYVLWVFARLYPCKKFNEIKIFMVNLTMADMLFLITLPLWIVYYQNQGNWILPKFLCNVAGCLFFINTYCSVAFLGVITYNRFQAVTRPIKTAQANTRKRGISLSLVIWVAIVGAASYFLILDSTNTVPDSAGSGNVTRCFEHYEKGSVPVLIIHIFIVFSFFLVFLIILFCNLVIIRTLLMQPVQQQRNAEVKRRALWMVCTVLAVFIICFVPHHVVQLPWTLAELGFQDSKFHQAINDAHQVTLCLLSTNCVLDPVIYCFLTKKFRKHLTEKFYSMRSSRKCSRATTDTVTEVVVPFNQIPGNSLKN

[3] = biological target: T3, Angiotensin-converting enzyme (Oryctolagus cuniculus, UniProt P12822); assay type: tissue-based, Lung;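 further: enzymatic inhibition of angiotensin-converting enzyme measured with FAPGG as the substrate; in other assays of this panel Not Active means under 50% inhibition at 10 µM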
T3 sequence (P12822 whole entry): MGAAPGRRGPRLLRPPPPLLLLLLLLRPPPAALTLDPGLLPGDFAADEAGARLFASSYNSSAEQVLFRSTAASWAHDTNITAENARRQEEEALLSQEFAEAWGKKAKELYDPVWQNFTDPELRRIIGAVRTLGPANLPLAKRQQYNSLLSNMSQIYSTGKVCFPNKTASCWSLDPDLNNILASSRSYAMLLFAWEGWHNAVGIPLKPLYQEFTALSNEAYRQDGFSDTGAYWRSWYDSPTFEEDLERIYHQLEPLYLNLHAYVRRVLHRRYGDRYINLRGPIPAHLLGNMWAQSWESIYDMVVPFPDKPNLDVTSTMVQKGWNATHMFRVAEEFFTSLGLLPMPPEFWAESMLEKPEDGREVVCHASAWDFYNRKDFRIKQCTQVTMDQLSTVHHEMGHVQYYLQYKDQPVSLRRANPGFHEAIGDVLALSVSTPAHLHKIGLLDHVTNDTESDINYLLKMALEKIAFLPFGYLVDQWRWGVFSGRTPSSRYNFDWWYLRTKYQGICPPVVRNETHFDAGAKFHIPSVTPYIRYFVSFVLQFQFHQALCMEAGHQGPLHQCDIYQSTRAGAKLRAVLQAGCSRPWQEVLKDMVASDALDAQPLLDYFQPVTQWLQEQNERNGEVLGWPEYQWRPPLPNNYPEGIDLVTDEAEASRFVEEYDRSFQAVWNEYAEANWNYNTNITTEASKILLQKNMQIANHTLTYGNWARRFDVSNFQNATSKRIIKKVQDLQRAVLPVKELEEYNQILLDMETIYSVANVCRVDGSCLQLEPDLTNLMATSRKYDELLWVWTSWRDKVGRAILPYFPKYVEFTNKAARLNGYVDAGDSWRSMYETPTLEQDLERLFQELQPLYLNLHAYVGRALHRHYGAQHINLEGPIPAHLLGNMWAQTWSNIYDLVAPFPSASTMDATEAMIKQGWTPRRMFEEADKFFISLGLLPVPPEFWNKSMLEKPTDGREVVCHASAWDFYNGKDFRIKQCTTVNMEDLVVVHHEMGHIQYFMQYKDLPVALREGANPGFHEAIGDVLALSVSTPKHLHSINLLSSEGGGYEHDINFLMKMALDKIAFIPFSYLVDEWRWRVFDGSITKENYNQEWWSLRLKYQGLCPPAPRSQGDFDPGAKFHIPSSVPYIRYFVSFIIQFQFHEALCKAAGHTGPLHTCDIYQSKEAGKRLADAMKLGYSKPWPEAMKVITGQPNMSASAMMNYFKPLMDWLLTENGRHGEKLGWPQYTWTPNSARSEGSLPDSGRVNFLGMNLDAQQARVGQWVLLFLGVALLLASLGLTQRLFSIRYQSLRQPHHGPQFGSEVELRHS

Adenosine receptor A3 = biological target: T4, Adenosine receptor A3 (Homo sapiens, UniProt P0DMS8); assay type: cell membranes, CHO-K1, Membrane; conditions: cho-k1;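 further: radioligand binding assay with AB-MECA serving as the labeled ligand; in other assays of this panel Not Active means under 50% inhibition at 10 µM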
T4 sequence (P0DMS8 whole entry): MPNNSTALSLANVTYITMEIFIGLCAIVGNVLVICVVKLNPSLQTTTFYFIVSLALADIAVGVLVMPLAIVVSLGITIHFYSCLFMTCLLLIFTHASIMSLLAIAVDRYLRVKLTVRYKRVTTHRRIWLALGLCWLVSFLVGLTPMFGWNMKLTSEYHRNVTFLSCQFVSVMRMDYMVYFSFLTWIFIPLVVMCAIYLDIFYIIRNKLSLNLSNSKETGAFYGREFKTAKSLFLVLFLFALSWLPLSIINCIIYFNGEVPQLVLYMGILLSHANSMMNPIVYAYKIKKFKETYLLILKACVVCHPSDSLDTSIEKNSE

COc1ccc2cc3[n+](cc2c1OC)CCc1cc2c(cc1-3)OCO2.[Cl-] [BERBERINE CHLORIDE]
Not Active: IC50 (Calcitonin receptor) | IC50 (D(4) dopamine receptor) | IC50 [1] | Ki [1] | IC50 [2] | IC50 [3] | IC50 (Adenosine receptor A3)

O=C(O)CCNC(=O)c1ccccc1 [BETAMIPRON]
Not Active: IC50 (Calcitonin receptor) | IC50 (D(4) dopamine receptor) | IC50 [1] | Ki [1] | IC50 [2] | IC50 [3] | IC50 (Adenosine receptor A3)

CC(=O)Oc1ccc(C(c2ccc(OC(C)=O)cc2)c2ccccn2)cc1 [BISACODYL]
Not Active: IC50 (Calcitonin receptor) | IC50 (D(4) dopamine receptor) | IC50 [1] | Ki [1] | IC50 [2] | IC50 [3] | IC50 (Adenosine receptor A3)

Cc1cc2c(OCC(CNC(C)(C)C)OC(=O)c3ccccc3)cccc2[nH]1 (stereo not given) [BOPINDOLOL]
Not Active: IC50 (Calcitonin receptor) | IC50 (D(4) dopamine receptor) | IC50 [1] | Ki [1] | IC50 [2] | IC50 [3] | IC50 (Adenosine receptor A3)

Brc1c(NC2=NCCN2)ccc2nccnc12 [BRIMONIDINE]
Not Active: IC50 (Calcitonin receptor) | IC50 (D(4) dopamine receptor) | IC50 [1] | Ki [1] | IC50 [2] | IC50 [3] | IC50 (Adenosine receptor A3)

CN(C)[C@@H]1C(O)=C(C(N)=O)C(=O)[C@@]2(O)C(O)=C3C(=O)c4c(O)ccc(Cl)c4[C@@](C)(O)[C@H]3C[C@@H]12 [CHLORTETRACYCLINE]
Not Active: IC50 (Calcitonin receptor) | IC50 (D(4) dopamine receptor) | IC50 [1] | Ki [1] | IC50 [2] | IC50 [3] | IC50 (Adenosine receptor A3)

CN/C(=N\CCSCc1nc[nH]c1C)NC#N [CIMETIDINE]
Not Active: IC50 (Calcitonin receptor) | IC50 (D(4) dopamine receptor) | IC50 [1] | Ki [1] | IC50 [2] | IC50 [3] | IC50 (Adenosine receptor A3)

COc1cc(N)c(Cl)cc1C(=O)NC1CCN(CCCOc2ccc(F)cc2)CC1OC (stereo not given) [CISAPRIDE]
Not Active: IC50 (Calcitonin receptor) | IC50 (D(4) dopamine receptor) | IC50 [1] | Ki [1] | IC50 [2] | IC50 [3] | IC50 (Adenosine receptor A3)

CCC(=O)O[C@]1(C(=O)CCl)[C@@H](C)C[C@H]2[C@@H]3CCC4=CC(=O)C=C[C@]4(C)[C@@]3(F)[C@@H](O)C[C@@]21C [CLOBETASOL PROPIONATE]
Not Active: IC50 (Calcitonin receptor) | IC50 (D(4) dopamine receptor) | IC50 [1] | Ki [1] | IC50 [2] | IC50 [3] | IC50 (Adenosine receptor A3)

O=C1CN=C(c2ccccc2Cl)c2cc([N+](=O)[O-])ccc2N1 [CLONAZEPAM]
Not Active: IC50 (Calcitonin receptor) | IC50 (D(4) dopamine receptor) | IC50 [1] | Ki [1] | IC50 [2] | IC50 [3] | IC50 (Adenosine receptor A3)

Nc1ccn([C@@H]2O[C@H](CO)[C@@H](O)[C@@H]2O)c(=O)n1 [CYTARABINE]
Not Active: IC50 (Calcitonin receptor) | IC50 (D(4) dopamine receptor) | IC50 [1] | Ki [1] | IC50 [2] | IC50 [3] | IC50 (Adenosine receptor A3)

C[C@@H]1C[C@H]2[C@@H]3CCC4=CC(=O)C=C[C@]4(C)[C@@]3(F)[C@@H](O)C[C@]2(C)[C@H]1C(=O)CO [DESOXIMETASONE]
Not Active: IC50 (Calcitonin receptor) | IC50 (D(4) dopamine receptor) | IC50 [1] | Ki [1] | IC50 [2] | IC50 [3] | IC50 (Adenosine receptor A3)

C[C@@H]1C[C@H]2[C@@H]3CCC4=CC(=O)C=C[C@]4(C)[C@@]3(F)[C@@H](O)C[C@]2(C)[C@@]1(O)C(=O)CO [DEXAMETHASONE]
Not Active: IC50 (Calcitonin receptor) | IC50 (D(4) dopamine receptor) | IC50 [1] | Ki [1] | IC50 [2] | IC50 [3] | IC50 (Adenosine receptor A3)

CN(C)CC[C@@H](c1ccc(Cl)cc1)c1ccccn1 [DEXCHLORPHENIRAMINE]
Not Active: IC50 (Calcitonin receptor) | IC50 (D(4) dopamine receptor) | IC50 [1] | Ki [1] | IC50 [2] | IC50 [3] | IC50 (Adenosine receptor A3)

C[C@@H]1CC[C@@]2(OC1)O[C@H]1[C@@H](O)[C@H]3[C@@H]4CC[C@H]5C[C@@H](O[C@@H]6O[C@H](CO)[C@H](O[C@@H]7O[C@H](CO)C(O)[C@H](O[C@@H]8OC[C@@H](O)[C@H](O)[C@H]8O)[C@H]7O[C@@H]7O[C@H](CO)[C@H](O)[C@H](O[C@@H]8O[C@H](CO)[C@@H](O)[C@H](O)[C@H]8O)[C@H]7O)[C@H](O)[C@H]6O)[C@H](O)C[C@]5(C)[C@H]4CC[C@]3(C)[C@H]1[C@@H]2C (stereo not given in full) [DIGITONIN]
Not Active: IC50 (Calcitonin receptor) | IC50 (D(4) dopamine receptor) | IC50 [1] | Ki [1] | IC50 [2] | IC50 [3] | IC50 (Adenosine receptor A3)
